Test systems include SNB-19 CNS; HL-60(TB) leukemia; OVCAR-4 ovarian; SN12C renal; DU-145 prostate; SF-295 CNS; HT29 colon; HOP-62 NSCLC; SNB-75 CNS; NCI-H226 lung; ACHN renal; SF-539 CNS; TK-10 renal; MDA-MB-231 breast; HCT-15 colon; A498 renal.
Common to all, as to experiment: NCI anticancer screen, dose series, 48 h

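A five-concentration, 48-hour dose response in 96-well plates underlies each endpoint, interpolated linearly between surrounding concentrations. TGI marks complete inhibition of growth.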 Bounds are passed on as bounds.

`CCOC(=O)Cn1c(=O)c2nc(SC)sc2n(CC)c1=S`: the TGI in the experiment with SNB-19 CNS, with HL-60(TB) leukemia, in the experiment with OVCAR-4 ovarian, in the experiment with SN12C renal, in the experiment on DU-145 prostate and with SF-295 CNS was greater than 100 µM throughout. The TGI was greater than 100 µM in the experiment with HT29 colon; greater than 100 µM with HOP-62 NSCLC; 52.4 µM with SNB-75 CNS; greater than 100 µM in the experiment on NCI-H226 lung; greater than 100 µM in the experiment with ACHN renal; greater than 100 µM with SF-539 CNS. Besides, the TGI with TK-10 renal, in the experiment on MDA-MB-231 breast and in the experiment on HCT-15 colon was greater than 100 µM in each case.

For `COc1cc(CO)c(CC(=O)NCCCc2ccccc2)cc1OC`, the TGI in the experiment with SNB-19 CNS, with HL-60(TB) leukemia, with OVCAR-4 ovarian, with SN12C renal, with DU-145 prostate and with HT29 colon was greater than 100 µM in each case. The TGI in the experiment on HOP-62 NSCLC, with SNB-75 CNS, in the experiment with NCI-H226 lung, with ACHN renal, with TK-10 renal and with MDA-MB-231 breast was greater than 100 µM in each case. The TGI in the experiment on A498 renal and in the experiment with HCT-15 colon was greater than 100 µM each time.

On to `O=C1NCc2ccccc2S(=O)(=O)n2cccc21`, for which the TGI in the experiment on SNB-19 CNS, with HL-60(TB) leukemia, with OVCAR-4 ovarian, in the experiment with SN12C renal, in the experiment with DU-145 prostate and with SF-295 CNS was greater than 100 µM each time. The TGI in the experiment with HT29 colon, with HOP-62 NSCLC, in the experiment on SNB-75 CNS, with NCI-H226 lung, in the experiment on ACHN renal and in the experiment with SF-539 CNS was greater than 100 µM in each case. Moreover, the TGI with TK-10 renal, in the experiment with MDA-MB-231 breast and in the experiment on HCT-15 colon was greater than 100 µM throughout.

For `C=CCc1cccc2cc(C(=O)Nc3ccccc3)c(=N)oc12`, the TGI in the experiment on SNB-19 CNS is greater than 100 µM; in the experiment on HL-60(TB) leukemia it was greater than 100 µM; in the experiment on OVCAR-4 ovarian, 74.9 µM; in the experiment on SN12C renal, greater than 100 µM; in the experiment with DU-145 prostate, greater than 100 µM; in the experiment on HT29 colon it was greater than 100 µM. Further, the TGI in the experiment with HOP-62 NSCLC, in the experiment with SNB-75 CNS, with NCI-H226 lung, in the experiment with ACHN renal, with SF-539 CNS and in the experiment on MDA-MB-231 breast was greater than 100 µM each time. Also, the TGI in the experiment on A498 renal was 50.3 µM; with HCT-15 colon, greater than 100 µM.

Consider `CCOC(=O)c1nc2ccccc2nc1NCc1cc(OC)c(OC)c(OC)c1`, for which the TGI in the experiment with HL-60(TB) leukemia, with OVCAR-4 ovarian, in the experiment on SN12C renal, in the experiment on DU-145 prostate, with SF-295 CNS and in the experiment with HT29 colon was greater than 100 µM in each case. The TGI in the experiment on HOP-62 NSCLC, in the experiment with SNB-75 CNS, in the experiment on NCI-H226 lung, in the experiment with ACHN renal, in the experiment with SF-539 CNS and with TK-10 renal was greater than 100 µM in each case. In addition, the results for the TGI in the experiment on MDA-MB-231 breast, in the experiment with A498 renal and in the experiment on HCT-15 colon were greater than 100 µM, 96.2 µM and greater than 100 µM, respectively.

On to `C[C@@H](c1ccccc1)N1CN(C(=O)OCc2ccccc2)C(C)(C)CC1=O`, for which the TGI in the experiment with SNB-19 CNS, in the experiment on HL-60(TB) leukemia, in the experiment on OVCAR-4 ovarian, in the experiment on SN12C renal, with DU-145 prostate and in the experiment with SF-295 CNS was greater than 100 µM throughout. Also, the TGI with HT29 colon, in the experiment on HOP-62 NSCLC, in the experiment with SNB-75 CNS, with NCI-H226 lung, in the experiment on ACHN renal and with SF-539 CNS was greater than 100 µM in each case. The TGI with TK-10 renal, in the experiment on MDA-MB-231 breast and with HCT-15 colon was greater than 100 µM in each case.

With `NC(=O)c1cc2ccc(O)cc2oc1=Nc1ccccc1`, the TGI in the experiment with SNB-19 CNS was greater than 100 µM; in the experiment on HL-60(TB) leukemia it was 62.4 µM; with OVCAR-4 ovarian it was greater than 100 µM; with SN12C renal, 66 µM; in the experiment with DU-145 prostate it was greater than 100 µM; in the experiment with SF-295 CNS, greater than 100 µM. For the same compound, the TGI with HT29 colon is greater than 100 µM; in the experiment on HOP-62 NSCLC, greater than 100 µM; in the experiment with SNB-75 CNS, 68.3 µM; in the experiment on NCI-H226 lung, 88.6 µM; with ACHN renal, greater than 100 µM; with TK-10 renal, greater than 100 µM. Further, the TGI is greater than 100 µM in the experiment on MDA-MB-231 breast, 68.1 µM with A498 renal and greater than 100 µM with HCT-15 colon.

For `COc1ccc(CC(=O)N2CCC3(C)CC(=O)CC=C23)cc1OC` (stereo unspecified), the TGI in the experiment on SNB-19 CNS, in the experiment with HL-60(TB) leukemia, with OVCAR-4 ovarian, with SN12C renal, in the experiment on DU-145 prostate and in the experiment with SF-295 CNS was greater than 100 µM in each case. In addition, the TGI in the experiment on HT29 colon, in the experiment with HOP-62 NSCLC, with NCI-H226 lung, with ACHN renal, in the experiment on SF-539 CNS and in the experiment on MDA-MB-231 breast was greater than 100 µM in each case. Besides, the TGI in the experiment on A498 renal and in the experiment on HCT-15 colon was greater than 100 µM in each case.

With `COc1ccc(-n2c(=O)[nH]n(C(C)=O)c2=O)cc1`, the TGI in the experiment on SNB-19 CNS, in the experiment on HL-60(TB) leukemia, in the experiment on OVCAR-4 ovarian, with SN12C renal, in the experiment on DU-145 prostate and in the experiment on SF-295 CNS was greater than 100 µM each time. Besides, the TGI with HT29 colon, in the experiment on SNB-75 CNS, in the experiment with NCI-H226 lung, with ACHN renal, with SF-539 CNS and in the experiment with TK-10 renal was greater than 100 µM throughout. For the same compound, the TGI with MDA-MB-231 breast, in the experiment with A498 renal and in the experiment on HCT-15 colon was greater than 100 µM throughout.

For the compound `CC1=NN(c2cccc(Cl)c2)C2(SCC(=O)N2c2nc3ccccc3s2)/C1=C\c1cccs1` (stereo unspecified), the TGI was 56 µM in the experiment on HL-60(TB) leukemia; 66 µM in the experiment with OVCAR-4 ovarian; greater than 100 µM in the experiment on DU-145 prostate; 78.3 µM in the experiment on SF-295 CNS; 46.6 µM in the experiment with HT29 colon; greater than 100 µM in the experiment on HOP-62 NSCLC. Further, the TGI with SNB-75 CNS is 47.9 µM; in the experiment on NCI-H226 lung, 50.7 µM; in the experiment with ACHN renal it was greater than 100 µM; in the experiment with SF-539 CNS it was 16.1 µM; in the experiment with TK-10 renal, 80.6 µM; in the experiment on MDA-MB-231 breast, 87 µM. Further, the TGI in the experiment with A498 renal is 59 µM; in the experiment on HCT-15 colon, 54.8 µM.

The values above are taken from PubChem BioAssay (NCI).
